Data from PMC6459958, “NEP-TC a rRNA Methyltransferase Involved on Somatic Embryogenesis of Tamarillo (Solanum betaceum Cav.)” (Frontiers in Plant Science, 2019).

Biological target: NEP-TC (Solanum betaceum, UniProt I1W0V3)
Assay: coupled colorimetric SAM methyltransferase assay (SAH production, […] nm)
Format: biochemical
Details: methyl donor; co-substrate rRNA or total RNA from non-embryogenic calli

Sequence of NEP-TC (I1W0V3 1-221): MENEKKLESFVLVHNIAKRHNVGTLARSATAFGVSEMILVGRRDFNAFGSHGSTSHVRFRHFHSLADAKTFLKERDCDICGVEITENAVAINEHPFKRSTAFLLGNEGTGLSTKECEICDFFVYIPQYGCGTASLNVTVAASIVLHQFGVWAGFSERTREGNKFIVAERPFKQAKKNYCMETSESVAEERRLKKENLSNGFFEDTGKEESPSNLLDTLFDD

C[S+](CC[C@H](N)C(=O)O)C[C@H]1O[C@@H](n2cnc3c(N)ncnc32)[C@H](O)[C@@H]1O (stereo partly shown) [SAM]
coupled colorimetric SAM methyltransferase assay (SAH production, 510 nm): production of SAH in SAM-dependent methylation reactions
